The record followed here is ChEMBL document CHEMBL2094269, “WEHI/Eskitis Trypanosoma b. brucei screening data”.

Where “and” joins values, the source holds several entries; their conditions need not be identical. Equal entries are not always repeated.

Series [1] is described as follows: DNDI: Cytotoxicity against human MRC-5 lung fibroblast cells. The note with it: IC50.
Series [2] relates to Trypanosoma brucei brucei. As to the kind of experiment: microbe, parasite or virus in culture. Type of series: functional, organism-based, STIB 795.
Description: DNDI: Inhibition of Human African Trypanosomiasis (HAT), STIB 795, in vitro

With `Oc1c(C(Nc2ccccn2)c2ccccc2Cl)ccc2cccnc12` (centres undefined), the half-inhibitory concentration (IC50) was greater than 20.8 µM in series [1] and 9.28 µM in series [2] (Trypanosoma brucei, STIB 795).
Take `CCOc1c(Cl)cc(CNCCc2c[nH]c3ccccc23)cc1OC`: the IC50 in series [1] is greater than 41.7 µM; in series [2] (Trypanosoma brucei, STIB 795), 5.09 µM.
For `CCC(=O)N(CC(CC(C)C)N1CCN(C)CC1)c1ccc(C2CCCC2)cc1` (centres undefined), in that order: greater than 41.7 µM and 4.79 µM.
For `CCCC(=O)NC(c1ccccc1Cl)c1cc(Cl)c2cccnc2c1O` (centres undefined), in that order: greater than 20.8 µM and 1.58 µM.
`Cc1cc(Cl)cc(Cl)c1OCCCCCN1CCNCC1`: the IC50 was greater than 20.8 µM in series [1] and 2.28 µM in series [2] (Trypanosoma brucei, STIB 795).
For `NCCCCNCCOC(c1ccc(F)cc1)c1ccc(F)cc1`, in that order: greater than 20.8 µM and 2.6 µM.
The corresponding values for `Cc1cc(C)c(C(=O)CC(N2CCCCC2)C(F)(F)F)c(=O)[nH]1` (centres undefined) are greater than 20.8 µM and 2.27 µM.
The corresponding values for `Cn1c2ccccc2c2nnc(N/N=C/c3ccccn3)nc21` are greater than 1.04 µM and 0.52 µM.
For `Cc1ccccc1C(=O)O/N=C(\N)c1ccccc1`, the IC50 was greater than 20.8 µM in series [1] and 0.881 µM in series [2] (Trypanosoma brucei, STIB 795).
The corresponding values for `CC1(C)N=C(N)N=C(N)N1OCc1cccc(C2CCCCC2)c1` are greater than 41.7 µM and 4.68 µM.
For `COc1ccccc1NC(=O)c1cc(Cl)nnc1Cl`, in that order: greater than 20.8 µM and 5.44 µM.
The corresponding values for `CCOc1cc(CNCCO)cc(Cl)c1OCc1ccccc1F` are greater than 20.8 µM and 2.43 µM.
As for `CC(C)(C)c1ccc(/C=N/n2cnnc2)cc1`, the concentration for half-maximal inhibition (IC50) in series [1] was greater than 41.7 µM; in series [2] (Trypanosoma brucei, STIB 795) it was 0.49 µM.
The corresponding values for `O=C(NO)c1sc2ccccc2c1Cl` are greater than 41.7 µM and 3.76 µM.
For `[O-][n+]1onc2cc(Cl)c3nonc3c21`, in that order: greater than 4.17 µM and 5.23 µM.
For `O=C(Cc1cc(O)[nH]n1)N/N=C/C=C/c1ccccc1`, in that order: greater than 41.7 µM and 5.31 µM.
As for `CCCC[n+]1cc(-c2ccccc2)nc(N2CCCCC2)n1`, the IC50 in series [1] is greater than 41.7 µM; in series [2] (Trypanosoma brucei, STIB 795), 7.6 µM.
As to `CCOc1ccc(/C=N/NC(=N)N)cc1`, the IC50 is greater than 41.7 µM in series [1] and 5.66 µM in series [2] (Trypanosoma brucei, STIB 795).
Regarding `Cc1cccc2c1NC(=O)C2(c1ccc(O)cc1)c1ccc(O)cc1`, the IC50 in series [1] is greater than 20.8 µM; in series [2] (Trypanosoma brucei, STIB 795), 5.72 µM.
Consider `Clc1cccc(CNC2=Nc3ccccc3NC23CCNCC3)c1`, for which the IC50 in series [1] was found to be 9.14 µM; in series [2] (Trypanosoma brucei, STIB 795) it was 1.2 µM.
The corresponding values for `CC(C)(C)c1cc(/C=N/Nc2nc3ccccc3[nH]2)cc(C(C)(C)C)c1O` are greater than 20.8 µM and 0.485 µM.
For `Clc1ccc2nnnc(-c3ccccc3)c2c1`, in that order: 4.48 µM and 2.81 µM.
Take `CCN1CCO/C1=C\C=C\C1=[N+](CC)CCO1`: the IC50 was greater than 41.7 µM in series [1] and 0.166 µM in series [2] (Trypanosoma brucei, STIB 795).
For `O=C(/C=C/c1ccccc1)ONC(=O)c1ccc(Cl)cc1`, in that order: greater than 20.8 µM and 4.45 µM.
With `Cc1nc2c(cc(O)c3ccccc32)s1`, the IC50 in series [1] is greater than 41.7 µM; in series [2] (Trypanosoma brucei, STIB 795), 5.47 µM.
With `c1ccc2c(OCCCCCCNCC3CCCO3)cccc2c1` (centres undefined), the IC50 in series [1] is greater than 41.7 µM; in series [2] (Trypanosoma brucei, STIB 795), 5.25 µM.
With `C1=C(N2CCNCC2)c2ccccc2Sc2ccccc21`, the IC50 in series [1] is greater than 20.8 µM; in series [2] (Trypanosoma brucei, STIB 795), 3.16 µM.
For `CCN(CC)c1ccc(/C=N\NC(=O)Cc2cccn2C)c(O)c1`, in that order: greater than 4.17 µM and 3.62 µM.
For `C/C(=N\NC(=O)c1ccc(Cl)c(Cl)c1)c1ccccn1`, in that order: greater than 41.7 µM and 5.16 µM.
The corresponding values for `C[N+](C)(C)c1nc(N2CCOCC2)nc(N(c2ccccc2)c2ccccc2)n1` are greater than 41.7 µM and 2.51 µM.
As to `CCC1CCCCN1S(=O)(=O)c1ccc(-c2ccno2)cc1OC` (centres undefined), the IC50 in series [1] is greater than 41.7 µM; in series [2] (Trypanosoma brucei, STIB 795), 2.73 µM.
For `CC1CCC(C(C)C)C(OCC(O)CN2C(C)CCCC2C)C1` (centres undefined), in that order: greater than 20.8 µM and 3.51 µM.
For `CNCCCC1Sc2ccccc2C(C)c2ccccc21` (centres undefined), in that order: greater than 20.8 µM and 4.88 µM.
For `C/N=c1\nnc(Nc2ccccc2O)c(N)o1`, in that order: 4.68 µM and 0.287 µM.
In the case of `Cc1cccc(-n2nnn(C3CC(=O)C4OCC3O4)c2=S)c1C` (centres undefined), the IC50 is greater than 41.7 µM in series [1] and 5.25 µM in series [2] (Trypanosoma brucei, STIB 795).
On to `NCC(O)(c1ccc(Cl)cc1)c1ccc(Cl)cc1`, for which the IC50 is greater than 20.8 µM in series [1]; 5.39 µM in series [2]; 5.33 µM in series [2] (Trypanosoma brucei, STIB 795).
Take `CCCOc1cccc(C(=O)Nc2cccc(-c3nc4ncccc4o3)c2C)c1`: the IC50 in series [1] was greater than 4.17 µM; in series [2] (Trypanosoma brucei, STIB 795), 0.662 µM.
As for `COc1nccnc1N/N=C/c1cc(Cl)cc(Cl)c1O`, the IC50 was greater than 20.8 µM in series [1] and 5.19 µM in series [2] (Trypanosoma brucei, STIB 795).
For `CCN1CCCC(Nc2ccnc3cc4ccccc4cc23)C1` (centres undefined), in that order: 4.95 µM and 0.275 µM.
For `CCOc1ccc(C2=CC(C(C(C)=O)C(C)=O)c3ccccc3O2)cc1` (centres undefined), in that order: greater than 41.7 µM and 4.42 µM.
For `O=C(CC1(O)C(=O)Nc2ccc(I)cc21)c1cccs1` (centres undefined), in that order: greater than 41.7 µM and 0.931 µM.
As for `O=C(NCCc1csc(-c2ccc(F)cc2)n1)c1ccc(Br)o1`, the IC50 in series [1] was greater than 41.7 µM; in series [2] (Trypanosoma brucei, STIB 795), 4.66 µM.
For `Nc1ccc(Nc2coc3ccccc23)cc1`, in that order: greater than 20.8 µM and 3.68 µM.
For `CN(C)c1ccc(/C=C/c2sc3ccc4ccccc4c3[n+]2C)cc1`, in that order: greater than 2.08 µM and less than 0.004 µM.
Turning to `CCc1cc(OCCCCCN2CCNCC2)ccc1Cl`, the IC50 in series [1] was greater than 20.8 µM; in series [2] (Trypanosoma brucei, STIB 795) it was 0.807 µM.
Regarding `Cc1ccc(C(=O)O/N=C(\N)Cc2cccs2)c(Cl)c1`, the IC50 in series [1] is greater than 41.7 µM; in series [2] (Trypanosoma brucei, STIB 795) it was 0.768 µM.
The corresponding values for `CC(Cc1ccccc1)[n+]1[cH-]/c(=N\C(=N\Cc2ccccc2)N(C)C)on1` (centres undefined) are greater than 41.7 µM and 0.83 µM.
The corresponding values for `CCOC(=O)CNC(=O)C(Cc1ccccc1)NS(=O)(=O)c1cccs1` (centres undefined) are greater than 41.7 µM and 5.51 µM.
As for `O=C(CC(SCc1ccco1)c1ccc(Cl)cc1)c1ccco1` (centres undefined), the IC50 in series [1] is greater than 41.7 µM; in series [2], 5.16 µM and > 10.4 µM.
As for `CCN(CC)c1ccc(/C=N/NC(=O)c2ccncc2)c(O)c1`, the IC50 in series [1] was greater than 4.17 µM; in series [2] it was 7.34 µM; in series [2] (Trypanosoma brucei, STIB 795), 3.82 µM.
Turning to `CCOC(=O)c1c(CN2CCOCC2)oc2c1C(=O)C(=O)c1ccccc1-2`, the IC50 in series [1] is greater than 20.8 µM; in series [2] (Trypanosoma brucei, STIB 795) it was 0.846 µM.
Consider `N#Cc1ccc(-c2ccncc2)nc1SCCN1CCCCC1`, for which the IC50 in series [1] was greater than 41.7 µM; in series [2] (Trypanosoma brucei, STIB 795), 7.34 µM.
Regarding `Cc1cc(NCCN2CCCCC2)c2ccc3ccccc3c2n1`, the IC50 in series [1] is greater than 20.8 µM; in series [2] (Trypanosoma brucei, STIB 795), 2.43 µM.
The corresponding values for `CC(C)(C)OC(=O)N1CCC[C@H]1c1nnc(SCc2cccc(Cl)c2)o1` are 2.87 µM and 0.538 µM.
The corresponding values for `N/C(=N\OC(=O)c1ccccc1Br)c1ccccc1` are greater than 20.8 µM and 2.66 µM.
For the compound `CN(C)c1ccc(/C=C\C=C\c2ccc[n+](C)c2)cc1`, the IC50 was greater than 20.8 µM in series [1] and 0.354 µM in series [2] (Trypanosoma brucei, STIB 795).

What is called IC50 is the concentration that gives 50% inhibition. Higher therefore signals weaker potency.
